Experimental data from patent publication US20120245029A1, “NOVEL PHOSPH(ON)ATE- AND SULF(ON)ATE-BASED PHOSPHATE MODIFIED NUCLEOSIDES USEFUL AS SUBSTRATES FOR POLYMERASES AND AS ANTIVIRAL AGENTS” (priority 2009, published 2012).

Assays:
HIV-1 RT [1] = biological target: T1, HIV-1 RT (Human immunodeficiency virus type 1 group M subtype B, UniProt P04585); experiment: Steady-state kinetics of single nucleotide incorporation by HIV-1 RT; assay type: biochemical; details: for Km / Vmax: P1T1 125 nM, HIV-1 RT 0.025 U/μL, 37° C.
T1 construct: HIV-1 Reverse Transcriptase serves, in the HIV-1 viral replication process, as catalyst; purchased Ambion
Protocol: The efficiency of incorporation by HIV-1 RT of 3-phosphono-L-Ala-dAMP (3) was investigated by determination of the kinetic parameters Km and Vmax. The steady-state kinetics assay was carried out as follows. The reaction was started by adding HIV-1 RT to P1-T1 complex, buffer, 3-phosphono-L-Ala-dAMP (3) and dATP. The final mixture (20 μL) contained 0.025 U/μL HIV-1 RT, buffer, 125 nM primer-template complex, and various concentrations 3-phosphono-L-Ala-dAMP and dATP. The range of concentrations for phosphoamidates was optimized according to a Km value for the incorporation of an individual nucleotide. In the case of HIV-1 RT, reaction mixtures containing the enzyme in concentration (0.025 U/μL) to attain 5-25% conversion and appropriate substrate concentration (0.5-100 μM used for 3-phosphono-L-Ala-dAMP (3) and 0.1-10 μM used for dATP) were incubated at 37° C. and run for 8-10 different time intervals (2-20 minutes). The incorporation velocities were calculated based on the percentage of single-nucleotide extension product (P+1 band). The kinetic parameters (Vmax and Km) were determined by plotting V (nM/min) versus substrate concentration (μM) and fitting the data point to a nonlinear Michaelis-Menten regression using GraphPad Prism software.

Taq DNA polymerase = Taq DNA polymerase (Thermus aquaticus, UniProt P19821); experiment: Single nucleotide incorporation using Taq DNA polymerase; assay type: biochemical; details: P1T1
Protocol: 3-phosphono-L-Ala-dAMP (3) was tested as a substrate for Taq DNA polymerase (data in FIG. 5).

HIV-1 RT [2] = biological target: T1, HIV-1 RT; experiment: Gel-based single nucleotide incorporation assay by HIV-1 RT (primer-template P1T1); assay type: biochemical; details: for substrate quality for HIV-1 RT (in words): among phosphoramidate analogues 1-5
HIV-1 RT [3] = biological target: T1, HIV-1 RT; experiment: Elongation of primer P1 directed by template T2 by HIV-1 RT; assay type: biochemical; details: P1T2; for P+7 product: 60 min
Protocol: (§1) DNA polymerase reactions: end-labeled primer was annealed to its template by combining primer and template in a molar ratio of 1:2 and heating the mixture to 70° C. for 10 minutes followed by slow cooling to room temperature over a period of 1.5 hour. For the incorporation of a modified nucleoside, a series of 20 μL-batch reactions was performed with the enzyme HIV-1 RT (Ambion, 10 U/μL stock soln, specific activity 8.095 Wring, concentration 1.2 mg/mL). The final mixture contained 125 nM primer template complex, RT buffer (250 mM Tris.HCl, 250 mM KCl, 50 mM MgCl2, 2.5 mM spermidine, 50 mM dithiothreitol (DTT); pH 8.3), 0.025 U/μL HIV-1 RT, and different concentrations of the phosphoramidate to be tested (1 mM, 500 μM, 200 μM and 100 μM).
(§2) Electrophoresis: all polymerase reaction aliquots (2.5 μL) were quenched by the addition of 10 μL of loading buffer (90% formamide, 0.05% bromophenol blue, 0.05% xylene cyanol and 50 mM ethylenediaminetetraacetic acid (EDTA)). Samples were heated at 85° C. for 5 minutes prior to analysis by electrophoresis for 2.5 hours at 2000 V on a 30 cm×40 cm×0.4 mm 20% (19:1 mono:bis) denaturing gel in the presence of a 100 mM Tris-borate, 2.5 mM EDTA buffer; pH 8.3. Products were visualized by phosphorimaging. The amount of radioactivity in the bands corresponding to the products of enzymatic reactions was determined by using the imaging device Cyclone@ and the Optiquant image analysis software (Perkin Elmer).
In order to further investigate the potentiality of the leaving groups of this invention, L-Cys-dAMP (2) and 3-phosphono-L-Ala-dAMP (3) were tested in the template dependent incorporation of more than one phosphoramidate nucleotides by HIV-1 RT (FIG. 4). For this purpose, Primer P1 and template T2 containing an overhang of seven thymidine residues and four nucleobases (GGAC) at the 3′-end were used.
In order to investigate the strand elongation capacity of compound 2, a template dependent incorporation of more than one nucleotide experiment was carried out. In this experiment HIV-1 RT and P1T2 duplex, where seven thymidine bases overhang of the template is flanked by four non-thymidine units at the 3′-end were used. A range of concentration of the building block was incubated with the primer-template complex and 0.025 U/μL of enzyme at the appropriate temperature, samples were quenched after 15, 30, 60, 90 and 120 minutes respectively and analyzed by 20% polyacrylamide gel electrophoresis.

HIV-1 RT [4] = biological target: T1, HIV-1 RT; experiment: Gel-based single nucleotide incorporation assay by HIV-1 RT (primer-template P1T1); assay type: biochemical; details: for % of P + 1 / % of P + 2: P1T1 125 nM
Protocol: as §1, §2
Here, the ability of phosphoramidate analogues as substrate for HIV-1 RT was investigated by the gel-based single nucleotide incorporation assay. The natural nucleoside triphosphate (dATP) was used as reference.
The ability of HIV-1 reverse transcriptase to incorporate phosphoramidate analogues 2-6 was analysed by gel-based single-nucleotide-incorporation assays using the primer-template complex P1T1.

HIV-1 RT [5] = biological target: T1, HIV-1 RT; details: previous experiments / already known; cited from earlier work

Taq DNA polymerase, sequence (P19821 whole entry): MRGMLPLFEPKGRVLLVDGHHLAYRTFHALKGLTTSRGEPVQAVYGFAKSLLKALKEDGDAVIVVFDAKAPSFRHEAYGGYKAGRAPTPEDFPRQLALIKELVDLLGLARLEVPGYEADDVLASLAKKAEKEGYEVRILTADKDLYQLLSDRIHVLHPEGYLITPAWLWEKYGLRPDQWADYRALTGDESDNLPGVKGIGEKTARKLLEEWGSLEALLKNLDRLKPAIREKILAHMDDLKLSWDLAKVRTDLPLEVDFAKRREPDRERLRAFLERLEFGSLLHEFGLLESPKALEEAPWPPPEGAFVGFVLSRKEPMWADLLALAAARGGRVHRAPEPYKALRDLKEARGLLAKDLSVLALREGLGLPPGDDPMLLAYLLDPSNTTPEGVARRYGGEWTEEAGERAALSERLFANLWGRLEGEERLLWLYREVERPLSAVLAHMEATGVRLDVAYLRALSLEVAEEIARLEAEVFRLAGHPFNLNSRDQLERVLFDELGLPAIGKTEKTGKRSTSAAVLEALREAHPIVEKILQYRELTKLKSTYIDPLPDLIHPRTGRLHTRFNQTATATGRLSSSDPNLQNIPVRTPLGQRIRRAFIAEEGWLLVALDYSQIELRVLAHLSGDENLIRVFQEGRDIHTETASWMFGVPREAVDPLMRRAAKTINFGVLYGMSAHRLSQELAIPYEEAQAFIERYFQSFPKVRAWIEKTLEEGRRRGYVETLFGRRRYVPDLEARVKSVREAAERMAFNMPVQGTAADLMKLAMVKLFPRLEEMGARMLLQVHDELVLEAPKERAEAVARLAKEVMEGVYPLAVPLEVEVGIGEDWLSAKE

With Nc1ncnc2c1ncn2[C@H]1C[C@H](O)[C@@H](COP(=O)(O)N[C@@H](CP(=O)(O)O)C(=O)O)O1 [Compound 3, 2′-deoxyadenosine-5′-(3-phosphono-L-alanine) phosphoramidate] the “Km fold higher than the natural substrate dATP” value (HIV-1 RT [1]) was 15 fold, the “Vmax fold lower than dATP” value (HIV-1 RT [1]) was 1.7 fold and the Km (HIV-1 RT [1]) was 14.3 ± 3.78 µM. For the same molecule, the Vmax (HIV-1 RT [1]) was 19.21 ± 1.58 nM/min, the “incorporation and primer extension by Taq DNA polymerase (in words)” value (Taq DNA polymerase) was “less active than HIV-1 RT” and the “Incorporation (conversion to a P+1 strand)” value (HIV-1 RT [2]; 10 μM substrate) was 27.1%. For the same molecule, the “% of P + 1” value (HIV-1 RT [2]; 50 μM substrate, 10 min, P1T1 125 nM) was 84.5%, the “substrate quality for HIV-1 RT (in words)” value (“substrate quality” below) (HIV-1 RT [2]) was “best incorporation efficiency” and the “primer extension products (in words)” value (HIV-1 RT [3]; 50 μM and 100 μM substrate) was “only extended a primer with two and three adenine nucleobases”. For the same molecule, the “P+7 product” value (HIV-1 RT [3]; 200 μM substrate) was 7.1%, the “P+7 product” value (HIV-1 RT [3]; 500 μM substrate) was 15.9% and the “P+7 product” value (HIV-1 RT [3]; 1 mM substrate) was 23.8%. For the same molecule, the “incorporation activity relative to natural dATP” value (HIV-1 RT [3]) was “less active than the natural dATP”, the “misincorporation (P+8)” value (HIV-1 RT [3]) was “did not result in any misincorporation” and the “% of P + 1” value (HIV-1 RT [4]; 50 μM substrate, 20 min) was 89.9%. For the same molecule, the “% of P + 1” value (HIV-1 RT [4]; 50 μM substrate, 30 min) was 92.6%, the “% of P + 1” value (HIV-1 RT [4]; 50 μM substrate, 60 min) was 94.6% and the “% of P + 1” value (HIV-1 RT [4]; 50 μM substrate, 120 min) was 95.9%. The “% of P + 1” value (HIV-1 RT [4]; 100 μM substrate, 10 min) was 94.8%, the “% of P + 1” value (HIV-1 RT [4]; 100 μM substrate, 20 min) was 97.7% and the “% of P + 1” value (HIV-1 RT [4]; 100 μM substrate, 30 min) was 97.6%. The “% of P + 1” value (HIV-1 RT [4]; 100 μM substrate, 60 min) was 97.9%, the “% of P + 1” value (HIV-1 RT [4]; 100 μM substrate, 120 min) was 97.5% and the “% of P + 1” value (HIV-1 RT [4]; 200 μM substrate, 10 min) was 91.7%. The “% of P + 2” value (HIV-1 RT [4]; 200 μM substrate, 10 min) was 3.0%, the “% of P + 1” value (HIV-1 RT [4]; 200 μM substrate, 20 min) was 93.8% and the “% of P + 2” value (HIV-1 RT [4]; 200 μM substrate, 20 min) was 3.4%. The “% of P + 1” value (HIV-1 RT [4]; 200 μM substrate, 30 min) was 93.7%, the “% of P + 2” value (HIV-1 RT [4]; 200 μM substrate, 30 min) was 3.6% and the “% of P + 1” value (HIV-1 RT [4]; 200 μM substrate, 60 min) was 93.0%. The “% of P + 2” value (HIV-1 RT [4]; 200 μM substrate, 60 min) was 4.3%, the “% of P + 1” value (HIV-1 RT [4]; 200 μM substrate, 120 min) was 94.2% and the “% of P + 2” value (HIV-1 RT [4]; 200 μM substrate, 120 min) was 3.6%. The “% of P + 1” value (HIV-1 RT [4]; 500 μM substrate, 10 min) was 88.8%, the “% of P + 2” value (HIV-1 RT [4]; 500 μM substrate, 10 min) was 7.5% and the “% of P + 1” value (HIV-1 RT [4]; 500 μM substrate, 20 min) was 88.4%. For the same molecule, the “% of P + 2” value (HIV-1 RT [4]; 500 μM substrate, 20 min) was 9.6%, the “% of P + 1” value (HIV-1 RT [4]; 500 μM substrate, 30 min) was 86.9% and the “% of P + 2” value (HIV-1 RT [4]; 500 μM substrate, 30 min) was 11.1%. The “% of P + 1” value (HIV-1 RT [4]; 500 μM substrate, 60 min) was 87.0%, the “% of P + 2” value (HIV-1 RT [4]; 500 μM substrate, 60 min) was 11.2% and the “% of P + 1” value (HIV-1 RT [4]; 500 μM substrate, 120 min) was 87.0%. The “% of P + 2” value (HIV-1 RT [4]; 500 μM substrate, 120 min) was 11.5%, the “% of P + 1” value (HIV-1 RT [4]; 1 mM substrate, 10 min) was 80.6% and the “% of P + 2” value (HIV-1 RT [4]; 1 mM substrate, 10 min) was 16.7%. The “% of P + 1” value (HIV-1 RT [4]; 1 mM substrate, 20 min) was 73.7%, the “% of P + 2” value (HIV-1 RT [4]; 1 mM substrate, 20 min) was 23.7% and the “% of P + 1” value (HIV-1 RT [4]; 1 mM substrate, 30 min) was 75.9%. For the same molecule, the “% of P + 2” value (HIV-1 RT [4]; 1 mM substrate, 30 min) was 22.1%, the “% of P + 1” value (HIV-1 RT [4]; 1 mM substrate, 60 min) was 76.3% and the “% of P + 2” value (HIV-1 RT [4]; 1 mM substrate, 60 min) was 21.9%. The “% of P + 1” value (HIV-1 RT [4]; 1 mM substrate, 120 min) was 76.4%, the “% of P + 2” value (HIV-1 RT [4]; 1 mM substrate, 120 min) was 21.7% and the “fold more efficient incorporation compared with L-Cys-dAMP (2)” value (HIV-1 RT [4]; HIV-1 RT single nucleotide incorporation) was 10.7 fold.
With Nc1ncnc2c1ncn2[C@H]1C[C@H](O)[C@@H](COP(=O)(O)N[C@@H](COS(=O)(=O)O)C(=O)O)O1 [Compound 4, 2′-Deoxyadenosine-5′-(O-sulfonato-L-serine) phosphoramidate] the “substrate quality” value (HIV-1 RT [2]) was “much less good substrates” and the “% of P + 1” value (HIV-1 RT [4]; 1 mM substrate, 60 min) was 8.1%.
In the case of Nc1ncnc2c1ncn2[C@H]1C[C@H](O)[C@@H](COP(=O)(O)N[C@@H](COP(=O)(O)O)C(=O)O)O1 [Compound 5, 2′-Deoxyadenosine-5′-(O-phospho-L-serine) phosphoramidate], the “substrate quality” value (HIV-1 RT [2]) is reported as “much less good substrates”, the “% of P + 1” value (HIV-1 RT [4]; 100 μM substrate, 10 min) is reported as 3.1% and the “% of P + 1” value (HIV-1 RT [4]; 100 μM substrate, 20 min) is reported as 3.2%. The “% of P + 1” value (HIV-1 RT [4]; 100 μM substrate, 30 min) was 4.6%, the “% of P + 1” value (HIV-1 RT [4]; 100 μM substrate, 60 min) was 5.1% and the “% of P + 1” value (HIV-1 RT [4]; 100 μM substrate, 120 min) was 5.2%. For the same molecule, the “% of P + 1” value (HIV-1 RT [4]; 200 μM substrate, 10 min) was 3.7%, the “% of P + 1” value (HIV-1 RT [4]; 200 μM substrate, 20 min) was 4.6% and the “% of P + 1” value (HIV-1 RT [4]; 200 μM substrate, 30 min) was 5.8%. For the same molecule, the “% of P + 1” value (HIV-1 RT [4]; 200 μM substrate, 60 min) was 6.6%, the “% of P + 1” value (HIV-1 RT [4]; 200 μM substrate, 120 min) was 9.5% and the “% of P + 1” value (HIV-1 RT [4]; 1 mM substrate, 60 min) was 19.4%.
In the case of Nc1ncnc2c1ncn2C1CC(O)C(COP(=O)(O)NC(CC(=O)O)C(=O)O)O1 [L-aspartic acid phosphoramidate of dAMP], the “substrate / leaving group quality for the polymerase (in words), already known” value (HIV-1 RT [5]) is given as “acceptable leaving group”.
For Nc1ncnc2c1ncn2[C@H]1C[C@H](O)[C@@H](COP(=O)(O)N[C@@H](CO)C(=O)O)O1 [Ser-dAMP], the “substrate / leaving group quality for the polymerase (in words), already known” value (HIV-1 RT [5]) is given as “poor substrate”.
With Nc1ncnc2c1ncn2[C@H]1C[C@H](O)[C@@H](COP(=O)(O)OP(=O)(O)OP(=O)(O)O)O1 [dATP, reference compound] the Km (HIV-1 RT [1]) was 0.93 ± 0.26 µM and the Vmax (HIV-1 RT [1]) was 32.27 ± 2.32 nM/min.
